Source: patent publication EP0409528A2, “Platinum triamine antitumor agents containing substituted anilines” (ENGELHARD CORPORATION, priority 1989, dated 1991)
Several values for one entry are separate records, joined by “and”; a condition that tells them apart may be missing. Equal entries are not always repeated.

Assays:
[1] = tested on: Sarcoma 180a; assay: Sarcoma 180 ascites (S180a) antitumor screening; format: in vivo, female CFW mice; details: for %ILS: single ip on day 1, in water; for %ILS / activity against Sarcoma 180a: ILS > 50% indicates activity; for Surv: survivors per group of 6 mice; for maximum ILS: Sarcoma 180a, at 20 mg/kg; for maximum ILS / activity against Sarcoma 180a: single ip administration on Day 1; for activity against Sarcoma 180a: result in words
Protocol: (§1) All of the compounds of the Examples were tested against Sarcoma 180a in female CFW mice via single ip administration on Day 1. Two of the compounds were active in this system: cis -[Pt(NH3)2(4-iodoaniline)CI]N03 (maximum ILS = 81% at 20 mg/kg) and cis -[Pt(NH3)2(3-iodoaniline)Cl]NO3 (maximum ILS = 83% at 20 mg/kg). The remaining compounds were not active. cis -[Pt(NH3)2(4-iodoaniline)Cl]NO3 was also tested against L1210 leukemia in female CDF1 mice via single ip administration on Day 1.
Female CFW mice (18-25g) were implanted with 2 x 10^6 cells ip on day zero. Compounds were administered in 0.5 mL of water ip on day one. Groups of 6 mice were used for each test dose as well as controls as defined above. The test was run for twice the MST of the control group, with survivors counted as dying on that day. An ILS of > 50% indicates activity. The tumor line was maintained through weekly transfer of 4 x 10^6 cells in CFW mice.

[2] = tested on: L1210 leukemia; assay: L1210 antitumor screening; format: in vivo, female CDF1 mice
Protocol: as §1
L1210 screening was conducted according to a published method. See Rose, et al, Cancer Treat. Repts ., 1982 , 66 , 135, which is incorporated herein by reference. Female CDF, mice (16-22g) were implanted with 1 x 10^6 tumor cells ip on day zero. Compounds were administered in 0.5 mL of water ip on day one. Groups of 6 mice were used for each dose. A control group of mice received only tumor and 0.5 mL of water. A positive control group received tumor and 8 mg/kg cisplatin in 0.5 mL of 0.15 M NaCI. The test was terminated after three times the mean survival time (MST) of the control group. Surviving mice were counted as dying on that day. Activity was determined based on the percent increase in MST of test mice over controls (%ILS). An ILS of > 25% represents activity. The tumor line was maintained through weekly transfer of 5 x 10^4 cells in DBA/2 mice.

[3] = S180a, dose 1.25 mg/kg ip day 1

SMILES	%ILS ([1]; S180a, dose 1.25 mg/kg) [%]	%ILS ([1]; S180a, dose 2.5 mg/kg) [%]	%ILS ([1]; S180a, dose 5 mg/kg) [%]	%ILS ([1]; S180a, dose 10 mg/kg) [%]	%ILS ([1]; S180a, dose 20 mg/kg) [%]	%ILS ([1]; S180a, dose 40 mg/kg) [%]	Surv [1, 3]	Surv ([1]; S180a, dose 2.5 mg/kg ip day 1)	Surv ([1]; S180a, dose 5 mg/kg ip day 1)	Surv ([1]; S180a, dose 10 mg/kg ip day 1)	Surv ([1]; S180a, dose 20 mg/kg ip day 1)	Surv ([1]; S180a, dose 40 mg/kg ip day 1)	maximum ILS [1] [%]	activity against Sarcoma 180a [1]	other results
[NH2][Pt]([NH2])([Cl])[Cl] [Positive Control, cisplatin, reference compound]	–	–	–	–	–	–	–	–	–	–	–	–	–	–	Positive Control SURV ([1]; S180a, positive control group: 8 mg/kg cisplatin in 0.15 M NaCl ip day 1, survivors per 6 mice): 4/6 and 5/6 and 6/6; Positive Control %ILS ([1]; S180a, positive control group: 8 mg/kg cisplatin in 0.5 mL of 0.15 M NaCl ip day 1): 92% and 95% and 98%; Positive Control SURV ([2]; L1210, positive control group: 8 mg/kg cisplatin in 0.15 M NaCl ip day 1, survivors per 6 mice): 5/6; Positive Control %ILS ([2]; L1210, positive control group: 8 mg/kg cisplatin in 0.5 mL of 0.15 M NaCl ip day 1): 190%
N.N.Nc1cccc(I)c1.O=[N+]([O-])[O-].[Cl-].[Pt+2] [cis-[Pt(NH3)2(3-iodoaniline)Cl]NO3]	-3	9	23	51	83	66	0/6	0/6	0/6	1/6	2/6	4/6	83	active	–
N.N.Nc1ccc(Br)cc1.O=[N+]([O-])[O-].[Cl][Pt+] [cis-[Pt(NH3)2(4-bromoaniline)Cl]NO3]	2	7	38	44	-14	-74	0/6	0/6	0/6	1/6	2/6	0/6	–	–	–
N.N.Nc1ccc(Cl)cc1.O=[N+]([O-])[O-].[Cl][Pt+] [cis-[Pt(NH3)2(4-chloroaniline)Cl]NO3]	3	9	40	44	-51	-77	0/6	0/6	0/6	0/6	0/6	0/6	–	–	–
N.N.Nc1ccc(F)cc1.O=[N+]([O-])[O-].[Cl-].[Pt+2] [cis-[Pt(NH3)2(4-fluoroaniline)Cl]NO3, cis-[Pt(NH3)2(4-fluoraniline)Cl]NO3]	6	14	27	45	-48	-77	0/6	0/6	0/6	0/6	1/6	0/6	–	–	–
N.N.Nc1ccc(I)cc1.O=[N+]([O-])[O-].[Cl-].[Pt+2] [cis-[Pt(NH3)2(4-iodoaniline)Cl]NO3, cis-(Pt(NH3)2(4-iodoaniline)Cl]NO3]	-1	22	38	39	81	–	0/6	0/6	0/6	0/6	2/6	–	81	active	%ILS ([1]; S180a, dose 0.63 mg/kg): 12%; Surv ([1]; S180a, dose 0.63 mg/kg ip day 1): 0/6; %ILS ([2]; L1210, dose 1.25 mg/kg, single ip on day 1, ILS > 25% represents activity): 14%; Surv ([2]; L1210, survivors per group of 6 mice, dose 1.25 mg/kg ip day 1): 0/6; maximum ILS ([2]; L1210 leukemia, at 10 mg/kg, single ip administration on Day 1): 37%; activity against L1210 leukemia ([2]; result in words, single ip administration on Day 1, ILS > 25% represents activity): moderate level of activity
